# Data: publication PMC9061999, “Application of the Adverse Outcome Pathway Concept to In Vitro Nephrotoxicity Assessment: Kidney Injury due to Receptor-Mediated Endocytosis and Lysosomal Overload as a Case Study” (Frontiers in Toxicology, 2022)
# Experiments:
# [1] = test system: NRK-52E cells; assay: CellTiter-Glo cytotoxicity assay (KE3); type: cell-based, rat; details: for BMC10, KE3: in vitro POD from KE dose-response, cell viability CellTiter-Glo, NRK-52E, 24 h treatment, n = 3; for MOE, KE3: margin of exposure: BMC10 in NRK-52E vs rat plasma/serum concentration (cmax or css)
# Procedure: Cells were plated into 96-well tissue culture plates (10,000 cells per well) and were allowed to grow for 48 h (NRK-52E) respectively 10 d (RPTEC/TERT1) prior to 24 h treatment with model stressors. Stock solution for each compound (2000 µM) was prepared in growth medium and serial dilutions (1:1) were made before each experiment. At the end of the 24 h treatment, cell viability was measured using the CellTiter-Glo® assay (Promega). CellTiter-Glo® reagents and buffer were mixed under light-protected conditions and 100 µL CellTiter-Glo® solution was added directly to each well followed by 2 min incubation on an orbital shaker and 10 min incubation at room temperature in the dark to stabilize the luminescence signal. The suspension was mixed via pipetting and 50 µL were transferred into white 96-well plates (PerkinElmer Inc.). The luminescence signal was measured on a multiplate reader (Mithras LB 940; Berthold). Each assay was performed in three independent experiments carried out in triplicates.
# [2] = test system: RPTEC/TERT1 cells; assay: LC-MS/MS analysis of intracellular concentration; type: in vitro ADME, human; details: for Intracellular concentration after recovery compared to the 24 h time-point: RPTEC/TERT1, 34 µM for 24 h, then 24 h in fresh medium; for Time course of intracellular concentration: within the 24 h treatment period (1-2 min, 1, 3, 6, 24 h), n = 3
# Procedure: NRK-52E and RPTEC/TERT1 cells were seeded in 12-well plates (120,000 cells per well) and were allowed to grow for 48 h (NRK-52E) or 10 d (RPTEC/TERT1) until they reached 100% confluence. After cells achieved 100% confluence, the supernatant was aspirated, and the cells were washed twice with 1 x PBS. Cells were treated with polymyxins at a final concentration of 34 µM for 24 h. Samples were taken at five different treatment time points (1–2 min, 1, 3, 6, and 24 h). In addition, a recovery sample was taken 24 h after the end of the 24 h treatment period. To this end, the supernatant was aspirated after 24 h treatment and the cells were washed three times with 1 x PBS to remove polymyxin B or colistin residues. Fresh growth medium was added, and the cells were incubated for another 24 h. At the end of each experiment, the cells were washed 3 times with 1 x PBS and trypsinized by adding 200 µL of trypsin. Detached cells were washed with 1,000 µL 1 x PBS and the cells were transferred to LoBind™ tubes (Eppendorf). Cell count was determined using a Fuchs-Rosenthal counting chamber (Hartenstein). Cells were centrifuged for 5 min at 4°C at 10.000 rpm and the supernatant was aspirated. Cells were resuspended in 1,000 µL 1 x PBS and centrifuged for 5 min at 4°C at 10.000 rpm. After centrifugation, the supernatant was aspirated, and the cell pellet was resuspended in 250 µL ammonium acetate buffer (10 mM) and 250 µL of 30% methanol with 1% acetic acid containing polymyxin B respectively colistin as an internal standard. Cells were sonicated for 10 min and centrifuged for 5 min at 4°C at 14.000 rpm. The supernatant was transferred quantitatively into new LoBind™ tubes (Eppendorf) and dried in a centrifugal vacuum concentrator for 2–3 h. To measure compound plastic binding, the empty 12 well plates were washed with 1.5 ml acetonitrile on an orbital shaker for 2 h and supernatant was collected. For sample purification via solid phase extraction, SPE cartridges Strata-X 33 µm polymeric reversed phase, 10 mg/1 ml (Phenomenex) were used. In the conditioning step the cartridges were rinsed with 200 µL methanol (100%) and subsequently with 200 µL ddH2O to activate the sorbent bed. The dried samples were dissolved in 200 µL 1% acetic acid and transferred onto the SPE cartridge. The SPE cartridge were rinsed once with 200 µL 1% acetic acid. Impurities were removed by rinsing the cartridge once with 200 µL 10% methanol. A fresh LoBind™ tube (Eppendorf) was placed under the SPE cartridge to eluate the samples by rinsing twice with 200 µL 90% methanol containing 1% acetic acid. The samples were dried in a centrifugal vacuum concentrator for 2–3 h. All samples were stored at −20°C until LC-MS/MS analysis.
# A triple quadrupole mass spectrometer equipped with a Turbo-Ion® Spray source (QTrap API 2000; AB Sciex Instruments) was used for analyses. The mass spectrometer was coupled to an Agilent 1100 HPLC system consisting of a binary pump system, a vacuum degasser and an autosampler (Agilent 1,100). […]
substance,measurement,setting,value
Colistin,"BMC10, KE3",[1],135.5 µM
same,"MOE, KE3",[1],13.0 – 26.6
same,Intracellular concentration compared to polymyxin B,"[2]; RPTEC/TERT1, 34 µM",lower intracellular concentrations
same,Intracellular concentration after recovery compared to the 24 h time-point,[2],declined during the 24 h off-dose recovery period
same,Time course of intracellular concentration,"[2]; RPTEC/TERT1, 34 µM",continuous rise in the intracellular concentration
Polymyxin B,"BMC10, KE3",[1],19.9 µM
same,"MOE, KE3",[1],2.8
same,Intracellular concentration after recovery compared to the 24 h time-point,[2],declined during the 24 h off-dose recovery period
same,Time course of intracellular concentration,"[2]; RPTEC/TERT1, 34 µM",continuous rise in the intracellular concentration
